# Assay results reported in ChEMBL document CHEMBL3217624, “Probing androgen receptor co-factor selectivity profiles: a chemical tool to determine cross-talk between androgen receptor and -catenin in vivo” (Medchemcomm, 2013).
# Active and inactive are the calls of the source. No cut-off for these calls is given here.
# Tests used:
# Rattus norvegicus [1] = experiment: Androgenic activity in ORX rat model assessed as reduction in plasma luteinizing hormone level at 30 mg/kg, sc qd after 11 days relative to sham control; format: functional, organism-based; set-up: dose 30 mg/kg
# Androgen receptor [2] = molecular target: T1, Androgen receptor (Homo sapiens, UniProt P10275); experiment: Displacement of [3H]mibolerone from human AR expressed in COS cells after 3.5 hrs by liquid scintillation counting analysis; format: cell-based
# T1 sequence (P10275 whole entry): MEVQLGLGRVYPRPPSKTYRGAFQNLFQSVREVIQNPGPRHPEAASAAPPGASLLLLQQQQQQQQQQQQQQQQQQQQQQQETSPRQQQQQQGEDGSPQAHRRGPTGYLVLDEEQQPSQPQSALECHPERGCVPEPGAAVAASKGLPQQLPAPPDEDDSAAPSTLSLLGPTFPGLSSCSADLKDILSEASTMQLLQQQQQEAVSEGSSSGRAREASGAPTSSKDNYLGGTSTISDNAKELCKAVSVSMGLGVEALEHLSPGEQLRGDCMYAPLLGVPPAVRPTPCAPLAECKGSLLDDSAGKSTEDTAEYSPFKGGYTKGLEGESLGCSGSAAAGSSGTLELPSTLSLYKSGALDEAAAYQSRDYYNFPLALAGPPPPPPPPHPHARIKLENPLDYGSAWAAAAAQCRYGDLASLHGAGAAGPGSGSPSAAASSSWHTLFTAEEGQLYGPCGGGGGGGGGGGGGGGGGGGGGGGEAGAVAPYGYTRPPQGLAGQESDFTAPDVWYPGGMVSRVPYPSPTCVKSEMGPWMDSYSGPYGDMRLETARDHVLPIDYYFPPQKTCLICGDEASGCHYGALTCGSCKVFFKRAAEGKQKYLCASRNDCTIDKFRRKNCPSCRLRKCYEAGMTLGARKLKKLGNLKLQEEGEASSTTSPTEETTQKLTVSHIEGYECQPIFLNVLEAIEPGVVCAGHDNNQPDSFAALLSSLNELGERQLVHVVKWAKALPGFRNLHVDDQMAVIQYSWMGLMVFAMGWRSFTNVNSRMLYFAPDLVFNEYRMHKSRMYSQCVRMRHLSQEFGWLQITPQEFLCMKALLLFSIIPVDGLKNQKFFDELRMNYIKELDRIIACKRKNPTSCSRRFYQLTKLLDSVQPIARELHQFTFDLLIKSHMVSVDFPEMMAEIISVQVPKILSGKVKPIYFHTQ
# Rattus norvegicus [3] = experiment: Androgenic activity in ORX rat model assessed as effect on seminal vesicle weight at 3 to 30 mg/kg, sc qd after 11 days relative to sham control; format: functional, organism-based
# Androgen receptor [4] = molecular target: T1, Androgen receptor; experiment: Agonist activity at human AR expressed in African green monkey CV1 cells after 17 hrs by ARE-driven luciferase reporter gene assay; format: cell-based, CV-1
# Rattus norvegicus [5] = experiment: Androgenic activity in ORX rat model assessed as restoration of hepatic hydroxyacid oxidase2 expression at 10 to 30 mg/kg, sc qd after 11 days by RT-PCR analysis relative to sham control; format: functional; settings: dose mg/kg 10-30; route subcutaneous
# [6] = molecular target: T2, Androgen receptor (Homo sapiens) (UniProt P10275); experiment: Agonist activity at human AR expressed in African green monkey CV1 cells assessed as supression of beta-catenin at 1000 nM after 17 hrs by Wnt 12xTcf-luciferase reporter gene assay relative to control; format: cell-based; settings: CV-1
# T2 sequence (whole entry): T1 sequence (P10275 whole entry)
# Rattus norvegicus [7] = experiment: Androgenic activity in sc dosed ORX rat model assessed as increase in hepatic carnitine palmitoyltransferase1 expression after 11 days by RT-PCR analysis relative to sham control; format: functional
# Rattus norvegicus [8] = experiment: Androgenic activity in ORX rat model assessed as reduction in plasma luteinizing hormone level at 10 mg/kg, sc qd after 11 days relative to sham control; format: functional, organism-based; set-up: dose 10 mg/kg
# Rattus norvegicus [9] = experiment: Androgenic activity in ORX rat model assessed as reduction in plasma luteinizing hormone level at 3 mg/kg, sc qd after 11 days relative to sham control; format: functional, organism-based; set-up: dose 3 mg/kg
# Rattus norvegicus [10] = experiment: Androgenic activity in ORX rat model assessed as reduction in plasma luteinizing hormone level at 1 mg/kg, sc qd after 11 days relative to sham control; format: functional, organism-based; set-up: dose 1 mg/kg
# Rattus norvegicus [11] = experiment: Androgenic activity in ORX rat model assessed as increase in seminal vesicle weight at 1 mg/kg, sc qd after 11 days relative to sham control; format: functional, organism-based; set-up: dose 1 mg/kg
# Rattus norvegicus [12] = experiment: Androgenic activity in ORX rat model assessed as increase in hepatic carnitine palmitoyltransferase1 expression at 1 mg/kg, sc qd after 11 days by RT-PCR analysis relative to sham control; format: functional; settings: route subcutaneous
# Rattus norvegicus [13] = experiment: Androgenic activity in ORX rat model assessed as restoration of hepatic hydroxyacid oxidase2 expression at 1 mg/kg, sc qd after 11 days by RT-PCR analysis relative to sham control; format: functional, organism-based; set-up: dose 1 mg/kg
# Rattus norvegicus [14] = experiment: Androgenic activity in ORX rat model assessed as increase in prostate weight at 1 mg/kg, sc qd after 11 days relative to sham control; format: functional, organism-based; set-up: dose 1 mg/kg; settings: Prostate gland
# Rattus norvegicus [15] = experiment: Androgenic activity in ORX rat model assessed as increase in levator ani muscle weight at 1 mg/kg, sc qd after 11 days relative to sham control; format: functional, organism-based; set-up: dose 1 mg/kg
Compound,Activity (Rattus norvegicus [1]),IC50 (Androgen receptor [2]) [µM],Activity (Rattus norvegicus [3]),EC50 (Androgen receptor [4]) [µM],fold change (FC) (Rattus norvegicus [5]),Activity [6] [%],Activity (Rattus norvegicus [7]),fold change (FC) (Rattus norvegicus [7]),Activity (Rattus norvegicus [8]),Activity (Rattus norvegicus [9]),Activity (Rattus norvegicus [10]),Activity (Rattus norvegicus [11]),fold change (FC) (Rattus norvegicus [12]),Activity (Rattus norvegicus [13]),Activity (Rattus norvegicus [14]),Activity (Rattus norvegicus [15])
CN1C(=O)C(F)=C[C@]2(C)[C@H]3CC[C@]4(C)[C@@H](C(=O)NCc5nc6cccnc6[nH]5)CC[C@H]4[C@@H]3CC[C@@H]12 [MK-0773],inactive,0.196,inactive,0.144,2.5,32,Dose-dependent effect,2,Active,inactive,–,–,–,–,–,–
CCC(=O)O[C@H]1CC[C@H]2[C@@H]3CCC4=CC(=O)CC[C@]4(C)[C@H]3CC[C@]12C [TESTOSTERONE PROPIONATE],–,0.018,–,–,–,–,–,–,–,–,Active,Active,2,Active,Active,Active
